These compounds were tested against TRIP8b-HCN1c40 (Homo sapiens (Human), UniProt Q8IYB4) (assay: TRIP8b-HCN1c40 AlphaScreen assay). Conditions: activity ranges; read-out: TRIP8b-HCN1c40 Alphascreen IC50 activity.
Type: binding
Procedure: AlphaScreen Assay. 20 nM ofGST-tagged HCNlc40 protein (corresponding to the C terminal 40 amino acids of HCN1) was incubated with 200 nM of His-tagged TRIP8b(241-602) and varying concentrations of the test compound as described in our prior report (Han et al., 2015). After a 3 h incubation, anti-GST AlphaScreen acceptor beads were added for 1.5 h followed by AlphaScreen nickel chelate donor beads for 1.5 h. AlphaScreen signal was quantified using a PerkinElmer (Waltham, MA) EnSpire multimode plate reader.

Chain of TRIP8b-HCN1c40 (Q8IYB4 265-626): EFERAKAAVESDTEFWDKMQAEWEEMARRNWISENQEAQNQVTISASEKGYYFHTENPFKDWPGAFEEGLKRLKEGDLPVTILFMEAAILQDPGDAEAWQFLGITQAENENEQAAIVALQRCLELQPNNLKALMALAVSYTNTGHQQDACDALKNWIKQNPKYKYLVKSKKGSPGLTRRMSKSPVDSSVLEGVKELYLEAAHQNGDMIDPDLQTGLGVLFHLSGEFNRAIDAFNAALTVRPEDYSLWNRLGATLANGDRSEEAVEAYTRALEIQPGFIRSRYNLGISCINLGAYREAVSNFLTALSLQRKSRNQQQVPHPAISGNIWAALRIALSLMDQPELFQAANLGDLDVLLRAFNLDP

IC50 [nM] | Structure (SMILES)
5000 to 10000 | CN1CCN(Cc2cc(-c3cccnc3)ccc2OCC(=O)Nc2ccc(Cl)c(Cl)c2)CC1 [NUCC-0202005]
< 1000 | CN1CCN(Cc2cc(-c3ccc(Cl)c(Cl)c3)ccc2OCC(=O)NCCc2ccc(C(F)(F)F)cc2)CC1 [NUCC-0201995]
1000 to 2000 | CN1CCN(Cc2cc(-c3ccc(Cl)c(Cl)c3)ccc2OCC(=O)NCCc2ccccc2)CC1 [NUCC-0201996]
10000 to 20000 | Cc1cccc(-c2ccc(OCC(=O)Nc3ccc(O)cc3)c(CN3CC[C@H](N)C3)c2)c1 [NUCC-0201624]
1000 to 2000 | CN1CCN(Cc2cc(-c3c(Cl)cc(Cl)cc3Cl)ccc2OCC(=O)NCc2ccc(Cl)c(Cl)c2)CC1 [NUCC-0201969]
5000 to 10000 | Cc1ccc(-c2ccc(OCC(=O)Nc3ccc4c(c3)OCO4)c(CN3CCCN(C)CC3)c2)cc1 [NUCC-0201600]
1000 to 2000 | COc1ccc(NC(=O)COc2ccc(-c3ccc(Cl)c(Cl)c3)cc2CN2CCN(C)CC2)cc1 [NUCC-0202019]
10000 to 20000 | COc1cc(NC(=O)COc2ccc(-c3cccc(C)c3)cc2CN2CC[C@H](N)C2)cc(OC)c1OC [NUCC-0201620]
5000 to 10000 | Cc1cccc(-c2ccc(OCC(=O)Nc3cc(O)c(O)c(O)c3)c(CN3CC[C@H](N)C3)c2)c1 [NUCC-0201628]
< 1000 | CN1CCN(Cc2cc(-c3ccc(Cl)c(Cl)c3)ccc2COC(=O)Nc2ccc3c(c2)OCO3)CC1 [NUCC-0202017]
2000 to 5000 | CSc1ccc(-c2ccc(OCC(=O)NCc3ccc(Cl)cc3)c(CN3CCN(C)CC3)c2)cc1 [NUCC-0201710]
10000 to 20000 | CN1CCN(Cc2cc(-c3ccc(F)cc3)ccc2OCC(=O)NCc2ccc(C(F)(F)F)cc2)CC1 [NUCC-0201103]
< 1000 | CN1CCN(Cc2cc(-c3ccc(Cl)c(Cl)c3)ccc2OCC(=O)N2CCc3ccccc3C2)CC1 [NUCC-0201990]
1000 to 2000 | CN1CCN(Cc2cc(-c3ccc(Cl)c(Cl)c3)ccc2OCC(=O)NC2CCc3ccccc32)CC1 (stereo not drawn) [NUCC-0201988]
< 1000 | CC(Oc1ccc(-c2ccc(Cl)c(Cl)c2)cc1CN1CCN(C)CC1)C(=O)NCc1ccc(Cl)cc1 (stereo not drawn) [NUCC-0202027]
< 1000 | CN1CCN(Cc2cc(-c3ccccc3)ccc2OCC(=O)Nc2ccc(Cl)c(Cl)c2)CC1 [NUCC-0202004]
< 1000 | CC(Oc1ccc(-c2ccc(F)c(C(F)(F)F)c2)cc1CN1CCN(C)CC1)C(=O)NCc1ccc(Cl)cc1 (stereo not drawn) [NUCC-0202033]
2000 to 5000 | CN1CCN(Cc2ccc(-c3ccc(C(F)(F)F)cc3)cc2OCC(=O)NCc2ccc(Cl)cc2)CC1 [NUCC-0202012]
1000 to 2000 | CN1CCN(Cc2cc(-c3ccc(Cl)c(Cl)c3)ccc2OCC(=O)N2CCc3ccccc32)CC1 [NUCC-0201980]
2000 to 5000 | CC(Oc1ccc(-c2ccc(F)cc2)cc1CN1CCN(C)CC1)C(=O)NCc1ccc(Cl)cc1 (stereo not drawn) [NUCC-0202032]
20000 to 40000 | Cc1ccc(-c2ccc(OCC(=O)N[C@H](C)c3ccccc3)c(CN3CCOCC3)c2)cc1 [NUCC-0201606]
1000 to 2000 | CN1CCN(Cc2ccc(-c3ccc(Cl)cc3)cc2OCC(=O)NCc2ccc(Cl)cc2)CC1 [NUCC-0202009]
< 1000 | CC(Oc1ccc(-c2cc(Cl)cc(Cl)c2)cc1CN1CCN(C)CC1)C(=O)NCc1ccc(Cl)cc1 (stereo not drawn) [NUCC-0202028]
5000 to 10000 | CN1CCN(Cc2cc(Oc3ccc(F)cc3)ccc2OCC(=O)NCc2ccc(Cl)cc2)CC1 [NUCC-0201229]
1000 to 2000 | CN1CCN(Cc2cc(-c3ccc(Cl)c(Cl)c3)ccc2OCCNS(=O)(=O)c2ccc(Cl)cc2)CC1 [NUCC-0201975]
10000 to 20000 | COc1ccc(CNC(=O)COc2ccc(-c3ccc(C)cc3)cc2CN2CCCN(C)CC2)c(OC)c1 [NUCC-0201599]
5000 to 10000 | Cc1ccccc1-c1ccc(OCC(=O)NCc2ccc(Cl)cc2)c(CN2CCNCC2)c1 [NUCC-0201617]
< 1000 | CN1CCN(Cc2cc(-c3cccc(Cl)c3)ccc2OCC(=O)Nc2ccc(Cl)c(Cl)c2)CC1 [NUCC-0201998]
2000 to 5000 | CN1CCN(Cc2cc(-c3ccc(C(F)(F)F)cc3)ccc2OCC(=O)NCc2ccc(Cl)cc2)CC1 [NUCC-0201711]
< 1000 | CN1CCN(Cc2cc(-c3ccccc3Cl)ccc2OCC(=O)Nc2ccc(Cl)c(Cl)c2)CC1 [NUCC-0201997]

Same assay, conditions: read-out: TRIP8b-HCN1c40 Alphascreen IC50

IC50 [nM] | Structure (SMILES)
5500 | CN1CCN(Cc2cc(-c3cccnc3)ccc2OCC(=O)Nc2ccc(Cl)c(Cl)c2)CC1 [NUCC-0202005]
< 740 | CN1CCN(Cc2cc(-c3ccc(Cl)c(Cl)c3)ccc2OCC(=O)NCCc2ccc(C(F)(F)F)cc2)CC1 [NUCC-0201995]
1100 | CN1CCN(Cc2cc(-c3ccc(Cl)c(Cl)c3)ccc2OCC(=O)NCCc2ccccc2)CC1 [NUCC-0201996]
20000 | Cc1cccc(-c2ccc(OCC(=O)Nc3ccc(O)cc3)c(CN3CC[C@H](N)C3)c2)c1 [NUCC-0201624]
1100 | CN1CCN(Cc2cc(-c3c(Cl)cc(Cl)cc3Cl)ccc2OCC(=O)NCc2ccc(Cl)c(Cl)c2)CC1 [NUCC-0201969]
9200 | Cc1ccc(-c2ccc(OCC(=O)Nc3ccc4c(c3)OCO4)c(CN3CCCN(C)CC3)c2)cc1 [NUCC-0201600]
1300 | COc1ccc(NC(=O)COc2ccc(-c3ccc(Cl)c(Cl)c3)cc2CN2CCN(C)CC2)cc1 [NUCC-0202019]
13000 | COc1cc(NC(=O)COc2ccc(-c3cccc(C)c3)cc2CN2CC[C@H](N)C2)cc(OC)c1OC [NUCC-0201620]
7800 | Cc1cccc(-c2ccc(OCC(=O)Nc3cc(O)c(O)c(O)c3)c(CN3CC[C@H](N)C3)c2)c1 [NUCC-0201628]
< 740 | CN1CCN(Cc2cc(-c3ccc(Cl)c(Cl)c3)ccc2COC(=O)Nc2ccc3c(c2)OCO3)CC1 [NUCC-0202017]
2900 | CSc1ccc(-c2ccc(OCC(=O)NCc3ccc(Cl)cc3)c(CN3CCN(C)CC3)c2)cc1 [NUCC-0201710]
15000 | CN1CCN(Cc2cc(-c3ccc(F)cc3)ccc2OCC(=O)NCc2ccc(C(F)(F)F)cc2)CC1 [NUCC-0201103]
< 740 | CN1CCN(Cc2cc(-c3ccc(Cl)c(Cl)c3)ccc2OCC(=O)N2CCc3ccccc3C2)CC1 [NUCC-0201990]
1400 | CN1CCN(Cc2cc(-c3ccc(Cl)c(Cl)c3)ccc2OCC(=O)NC2CCc3ccccc32)CC1 (stereo not drawn) [NUCC-0201988]
940 | CC(Oc1ccc(-c2ccc(Cl)c(Cl)c2)cc1CN1CCN(C)CC1)C(=O)NCc1ccc(Cl)cc1 (stereo not drawn) [NUCC-0202027]
890 | CN1CCN(Cc2cc(-c3ccccc3)ccc2OCC(=O)Nc2ccc(Cl)c(Cl)c2)CC1 [NUCC-0202004]
990 | CC(Oc1ccc(-c2ccc(F)c(C(F)(F)F)c2)cc1CN1CCN(C)CC1)C(=O)NCc1ccc(Cl)cc1 (stereo not drawn) [NUCC-0202033]
2100 | CN1CCN(Cc2ccc(-c3ccc(C(F)(F)F)cc3)cc2OCC(=O)NCc2ccc(Cl)cc2)CC1 [NUCC-0202012]
1200 | CN1CCN(Cc2cc(-c3ccc(Cl)c(Cl)c3)ccc2OCC(=O)N2CCc3ccccc32)CC1 [NUCC-0201980]
3200 | CC(Oc1ccc(-c2ccc(F)cc2)cc1CN1CCN(C)CC1)C(=O)NCc1ccc(Cl)cc1 (stereo not drawn) [NUCC-0202032]
28000 | Cc1ccc(-c2ccc(OCC(=O)N[C@H](C)c3ccccc3)c(CN3CCOCC3)c2)cc1 [NUCC-0201606]
1000 | CN1CCN(Cc2ccc(-c3ccc(Cl)cc3)cc2OCC(=O)NCc2ccc(Cl)cc2)CC1 [NUCC-0202009]
860 | CC(Oc1ccc(-c2cc(Cl)cc(Cl)c2)cc1CN1CCN(C)CC1)C(=O)NCc1ccc(Cl)cc1 (stereo not drawn) [NUCC-0202028]
7100 | CN1CCN(Cc2cc(Oc3ccc(F)cc3)ccc2OCC(=O)NCc2ccc(Cl)cc2)CC1 [NUCC-0201229]
1700 | CN1CCN(Cc2cc(-c3ccc(Cl)c(Cl)c3)ccc2OCCNS(=O)(=O)c2ccc(Cl)cc2)CC1 [NUCC-0201975]
15000 | COc1ccc(CNC(=O)COc2ccc(-c3ccc(C)cc3)cc2CN2CCCN(C)CC2)c(OC)c1 [NUCC-0201599]
7800 | Cc1ccccc1-c1ccc(OCC(=O)NCc2ccc(Cl)cc2)c(CN2CCNCC2)c1 [NUCC-0201617]
< 740 | CN1CCN(Cc2cc(-c3cccc(Cl)c3)ccc2OCC(=O)Nc2ccc(Cl)c(Cl)c2)CC1 [NUCC-0201998]
3900 | CN1CCN(Cc2cc(-c3ccc(C(F)(F)F)cc3)ccc2OCC(=O)NCc2ccc(Cl)cc2)CC1 [NUCC-0201711]
< 740 | CN1CCN(Cc2cc(-c3ccccc3Cl)ccc2OCC(=O)Nc2ccc(Cl)c(Cl)c2)CC1 [NUCC-0201997]

Source: US20230391714A1, “INHIBITORS OF THE INTERACTION BETWEEN TRIP8B AND HCN CHANNELS AND USES THEREOF FOR TREATING NEUROLOGICAL DISEASES AND DISORDERS” (Northwestern University, priority 2022, published 2023)
